The record followed here is patent US12071411B2, “Inhibitors of HIF-2α and methods of use thereof” (ARCUS BIOSCIENCES, INC., priority 2021, dated 2024).

For experiment [1], the target named is T1, HIF-2α (Homo sapiens, UniProt Q99814). The experiment can be described thus: HIF-2α Luciferase Reporter Assay (serum free) in HIF-Luc-786-0 cells. The format is cell-based. The conditions noted are these: Opti-MEM, 786-0 reporter cells, 20 hours incubation. As to the method:
(§1) Generation of HIF-2α Luciferase 786-0 Cell Line:
(§2) Stable cell lines were generated by transducing 786-0 cells (ATCC, CRL-1932) with Cignal Lenti HIF Luc Reporter lentivirus (CLS-007L, Qiagen) according to the manufacturer's guidelines. In brief, 0.3×10^6 786-0 cells were transduced with lentivirus at a multiplicity of infection (MOI) of 25 for 24 hours. After transduction, cells were replenished with fresh RPMI 1640 Medium (Cat. No. 11875085, Thermo Fisher) supplemented with 10% FBS (Cat. No. A3160502, Gibco), 2 mM GlutaMAX™ (Cat. No. 35050-061, Invitrogen) and 100 units of penicillin and 100 μg of streptomycin/mL (Cat. No 15070063, Thermo Fisher) for another 24 hours. Antibiotic selection was performed in cell media containing 4 μg/mL of puromycin. After 7 days of antibiotic selection, stable pools of surviving cells were expanded and used in a luciferase reporter assay.
HIF-2α Luciferase Reporter Assay (Serum Free):
On day one, 20 uL of HIF-Luc-786-0 cells in Opti-MEM™ (Cat. No. 31985088, Thermo Fisher) were seeded into each well of a 384 well white opaque plate (Corning 3570) and incubated at 37° C. and 5% CO2. Twenty microliters of 2× test compounds in Opti-MEM™ were added to cells after 4 hours of incubation. Final assay conditions comprised 20,000 cells per well in 1% DMSO with test compound concentrations ranging from 50 uM to 0 uM. After 20 hours incubation at 37° C. and 5% CO2, luciferase activity was determined using ONE-Glo™ Luciferase Assay Reagent (E6110, Promega) following the manufacture's recommended procedure. Briefly, 40 uL of ONE-Glo™ luciferase reagents were added to each well and luciferase signals were measured using an Envision 2102 Multilabel Reader. Percentage maximum activity in each test well was calculated based on DMSO (maximum activity) and no cell control wells (baseline activity). The IC50 values of the test compounds were determined from compound dose response curves fitted using a standard four parameter fit equation.
In general terms: A reporter such as luciferase makes a cellular process visible.

Experiment [2] concerns the target T1, HIF-2α. The experiment can be described thus: HIF-2α Luciferase Reporter Assay (serum), HRE-luciferase 786-0 cells in 100% human serum. The format is cell-based. The settings on record: for IC50: 100% human serum, 786-0 reporter cells, overnight incubation, read-out: Serum Potency; for Serum Shift (approximate): ratio of IC50 in 100% serum to IC50 in serum free conditions. As to the method: as §1, §2
HIF-2α Luciferase Reporter Assay (Serum):
An HRE-luciferase stable reporter 786-0 cell line was maintained in active culture using RPMI 1640 (GIBCO) media supplemented with 1% penicillin-streptomycin, 1% GlutaMAX™, 10% FBS-One Shot (GIBCO) and 4 ug/ml of puromycin (Invitrogen). On the day of the assay, cells were harvested using StemPro™ Accutase™ cell dissociation reagent (GIBCO) and resuspended at 1.5 million cells per milliliter in Opti-MEM™ (GIBCO). 20 ul/well of the resuspended cells were dispensed into a 384 white tissue culture-treated microplate (Corning) and allowed to incubate at 37° C., 5% CO2 for 3 hours. Compounds were prepared by dispensing 0.8 ul of compound in 100% DMSO into a Greiner plate containing 40 ul/well of 100% human serum (Bioreclamation IVT). After 3 hours, media was removed via centrifugation at 500 RPM for 30 seconds and 30 ul/well of compound diluted in human serum was added. The plate was incubated overnight at 37° C., 5% CO2. The following day, ONE-Glo™ was prepared per vendors instructions. The cell plate was removed from the incubator and the human serum was removed from the plate using centrifugation at 500 RPM for 30 seconds. Following the removal of human serum, 40 ul/well of room temperature Opti-MEM™ was added to the plate and allowed to equilibrate to room temperature for 2 hours. 40 ul/well of ONE-Glo™ reagent was added and allowed to incubate for 10 minutes before reading the luminescence signal on the Envision (PerkinElmer). Data was analyzed using 4-parameter logistic equation to generate IC50.

T1 sequence (Q99814 whole entry): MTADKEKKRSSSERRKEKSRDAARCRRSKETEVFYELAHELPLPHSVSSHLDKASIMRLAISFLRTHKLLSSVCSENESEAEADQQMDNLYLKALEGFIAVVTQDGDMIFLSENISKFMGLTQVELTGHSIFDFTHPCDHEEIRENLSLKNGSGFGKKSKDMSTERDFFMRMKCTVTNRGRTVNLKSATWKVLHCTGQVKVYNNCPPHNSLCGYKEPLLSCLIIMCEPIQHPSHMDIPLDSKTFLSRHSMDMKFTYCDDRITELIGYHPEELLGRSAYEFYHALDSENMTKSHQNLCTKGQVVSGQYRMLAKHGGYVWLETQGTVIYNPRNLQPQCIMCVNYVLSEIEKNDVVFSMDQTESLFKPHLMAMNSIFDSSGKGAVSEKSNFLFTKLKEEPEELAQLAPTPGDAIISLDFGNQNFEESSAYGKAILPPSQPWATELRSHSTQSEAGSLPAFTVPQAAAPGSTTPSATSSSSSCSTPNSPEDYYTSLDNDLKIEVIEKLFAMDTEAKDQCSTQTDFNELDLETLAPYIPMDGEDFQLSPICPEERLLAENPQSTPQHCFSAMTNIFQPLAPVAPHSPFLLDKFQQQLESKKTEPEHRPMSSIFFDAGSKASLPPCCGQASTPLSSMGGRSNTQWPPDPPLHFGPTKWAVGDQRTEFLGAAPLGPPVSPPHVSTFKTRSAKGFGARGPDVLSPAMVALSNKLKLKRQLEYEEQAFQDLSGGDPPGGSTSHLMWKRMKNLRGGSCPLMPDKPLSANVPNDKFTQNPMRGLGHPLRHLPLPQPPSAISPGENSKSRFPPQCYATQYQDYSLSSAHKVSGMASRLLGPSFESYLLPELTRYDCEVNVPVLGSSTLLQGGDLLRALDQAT

Take `O[C@H]1c2c(C(F)(F)F)nn(C3COCC(F)(F)C3)c2CC1(F)F` (stereo partly drawn) [Example 85, (4S)-1-(5,5-difluorooxan-3-yl)-5,5-difluoro-3-(trifluoromethyl)-1H,4H,5H,6H-cyclopenta[c]pyrazol-4-ol]: the values for the IC50 in experiment [1] and in experiment [2] were 100 to 1000 nM and more than 1000 nM, respectively. The “Serum Shift (approximate)” value in experiment [2] is 6.

In turn, `O[C@H]1c2c(C(F)(F)F)nn([C@H]3CCO[C@@H](C(F)(F)F)C3)c2[C@@H](F)[C@H]1F` (single isomer, unassigned) [150/151 DIAST-1] gave an IC50 in experiment [1] of 100 to 1000 nM. Further, in experiment [2], the IC50 was more than 1000 nM and the “Serum Shift (approximate)” value is 5.

Turning to `O[C@H]1c2c(C(F)(F)F)nn(CCCOC(F)(F)F)c2C[C@@H]1F` [Example 63, (4S,5S)-5-fluoro-1-[3-(trifluoromethoxy)propyl]-3-(trifluoromethyl)-5,6-dihydro-4H-cyclopenta[c]pyrazol-4-ol], the IC50 in experiment [1] fell in the range of 100 to 1000 nM. Moreover, in experiment [2], the IC50 is more than 1000 nM and the “Serum Shift (approximate)” value is listed as 4.

Regarding `O[C@H]1c2c(C(F)(F)F)nn(-c3ccc(Cl)cc3)c2CC1(F)F` [Example 116, (4S)-1-(4-chlorophenyl)-5,5-difluoro-3-(trifluoromethyl)-4,6-dihydrocyclopenta[c]pyrazol-4-ol], the IC50 in experiment [1] is less than 100 nM. Further, in experiment [2], the IC50 was more than 1000 nM and the “Serum Shift (approximate)” value is 73.

As for `C[C@@H](C#N)CCn1nc(C(F)(F)F)c2c1CCC(F)(F)[C@H]2O` [Example 99, (2R)-4-[(4S)-5,5-difluoro-4-hydroxy-3-(trifluoromethyl)-6,7-dihydro-4H-indazol-1-yl]-2-methylbutanenitrile], the IC50 in experiment [1] was less than 100 nM. Besides, in experiment [2], the IC50 fell in the range of 100 to 1000 nM and the “Serum Shift (approximate)” value is on record as 3.

Regarding `O[C@H]1c2c(C(F)(F)F)nn([C@H]3C[C@]4(CC4(F)F)C3)c2CC1(F)F` [Example 65, (4S)-5,5-difluoro-1-[(3s,5s)-1,1-difluorospiro[2.3]hexan-5-yl]-3-(trifluoromethyl)-4,6-dihydrocyclopenta[c]pyrazol-4-ol], the IC50 in experiment [1] fell in the range of 100 to 1000 nM. Further, in experiment [2], the IC50 was more than 1000 nM and the “Serum Shift (approximate)” value is given as 11.

Take `O[C@H]1c2c(C(F)(F)F)nn([C@H]3CC[C@H](F)[C@H](F)C3)c2[C@@H](F)[C@H]1F` (single isomer, unassigned) [141/142 DIAST-2]: the IC50 in experiment [1] was in the range of 100 to 1000 nM. In experiment [2], the IC50 was in the range of 100 to 1000 nM and the “Serum Shift (approximate)” value came out at 3.

The compound `O[C@H]1c2c(C(F)(F)F)nn([C@@H]3CCC[C@H](OC(F)F)C3)c2CC1(F)F` (racemic) [Example 112, (4S)-1-[(1R,3S)-3-(difluoromethoxy)cyclohexyl]-5,5-difluoro-3-(trifluoromethyl)-1H,4H,5H,6H-cyclopenta[c]pyrazol-4-ol and (4S)-1-[(1S,3R)-3-(difluoromethoxy)cyclohexyl]-5,5-difluoro-3-(trifluoromethyl)-1H,4H,5H,6H-cyclopenta[c]pyrazol-4-ol] gave an IC50 in experiment [1] of less than 100 nM. In addition, in experiment [2], the IC50 was more than 1000 nM and the “Serum Shift (approximate)” value turned out to be 17.

`O[C@H]1c2c(C(F)(F)F)nn(CCCOC(F)(F)F)c2C[C@H]1F` [Example 62, (4S,5R)-5-fluoro-1-[3-(trifluoromethoxy)propyl]-3-(trifluoromethyl)-5,6-dihydro-4H-cyclopenta[c]pyrazol-4-ol] gave an IC50 in experiment [1] of 100 to 1000 nM. In addition, in experiment [2], the IC50 was 100 to 1000 nM and the “Serum Shift (approximate)” value is reported as 2.

With `O[C@H]1c2c(C(F)(F)F)nn([C@H]3CCC(F)(F)[C@H](F)C3)c2CC1(F)F` [Example 122, (4S)-5,5-difluoro-1-[(1S,3R)-3,4,4-trifluorocyclohexyl]-3-(trifluoromethyl)-4,6-dihydrocyclopenta[c]pyrazol-4-ol], in experiment [1], the IC50 is less than 100 nM. Besides, in experiment [2], the IC50 was more than 1000 nM and the “Serum Shift (approximate)” value is reported as 6.

For `O=S1(=O)CC2(CC(n3nc(C(F)(F)F)c4c3CC(F)(F)[C@H]4O)C2)C1` [Example 127, (4S)-1-(2,2-dioxo-2λ^6-thiaspiro[3.3]heptan-6-yl)-5,5-difluoro-3-(trifluoromethyl)-4,6-dihydrocyclopenta[c]pyrazol-4-ol], the IC50 in experiment [1] and in experiment [2] was more than 1000 nM in each case. In experiment [2], the “Serum Shift (approximate)” value is reported as 3.

For `O[C@H]1c2c(C(F)(F)F)nn(C3CC4(C3)CC(F)(F)C4)c2C[C@H]1F` [Example 67, (4S,5R)-1-{6,6-difluorospiro[3.3]heptan-2-yl}-5-fluoro-3-(trifluoromethyl)-4,6-dihydrocyclopenta[c]pyrazol-4-ol], the IC50 in experiment [1] and in experiment [2] was 100 to 1000 nM each time. The “Serum Shift (approximate)” value in experiment [2] was found to be 7.

`O[C@H]1c2c(C(F)(F)F)nn(CCCC(F)(F)F)c2CC[C@H]1F` [Example 51, (4S,5R)-5-fluoro-1-(4,4,4-trifluorobutyl)-3-(trifluoromethyl)-4,5,6,7-tetrahydroindazol-4-ol] registered an IC50 in experiment [1] of 100 to 1000 nM. Moreover, in experiment [2], the IC50 lay within 100 to 1000 nM and the “Serum Shift (approximate)” value is reported as 3.

Consider `O[C@H]1c2c(C(F)(F)F)nn(CCc3cnoc3)c2CC1(F)F` [Example 75, (4S)-5,5-difluoro-1-[2-(1,2-oxazol-4-yl)ethyl]-3-(trifluoromethyl)-4,6-dihydrocyclopenta[c]pyrazol-4-ol], for which, in experiment [1], the IC50 was less than 100 nM. In addition, in experiment [2], the IC50 was more than 1000 nM and the “Serum Shift (approximate)” value was 5.

`O[C@H]1c2c(C(F)(F)F)nn([C@@H]3CCC(F)(F)[C@@H](F)C3)c2CC1(F)F` [Example 121, (4S)-5,5-difluoro-1-[(1R,3S)-3,4,4-trifluorocyclohexyl]-3-(trifluoromethyl)-4,6-dihydrocyclopenta[c]pyrazol-4-ol] gave an IC50 in experiment [1] of less than 100 nM. Also, in experiment [2], the IC50 was more than 1000 nM and the “Serum Shift (approximate)” value worked out at 11.

In turn, `CS(=O)(=O)CCn1nc(C(F)(F)F)c2c1CC(F)(F)[C@H]2O` [Example 56, (4S)-5,5-difluoro-1-(2-methylsulfonylethyl)-3-(trifluoromethyl)-4,6-dihydrocyclopenta[c]pyrazol-4-ol] gave an IC50 in experiment [1] of 100 to 1000 nM. For the same compound, in experiment [2], the IC50 lay within 100 to 1000 nM and the “Serum Shift (approximate)” value is 2.

In experiment [1], `O[C@H]1c2c(C(F)(F)F)nn(CCCC(F)(F)F)c2[C@H](F)[C@H]1F` [Example 139, (4S,5S,6S)-5,6-difluoro-1-(4,4,4-trifluorobutyl)-3-(trifluoromethyl)-5,6-dihydro-4H-cyclopenta[c]pyrazol-4-ol] displayed an IC50 of less than 100 nM. Besides, in experiment [2], the IC50 was more than 1000 nM and the “Serum Shift (approximate)” value worked out at 6.

As for `O[C@H]1c2c(C(F)(F)F)nn(CCCC(F)(F)F)c2CC[C@@H]1F` [Example 52, (4S,5S)-5-fluoro-1-(4,4,4-trifluorobutyl)-3-(trifluoromethyl)-4,5,6,7-tetrahydroindazol-4-ol], the results for the IC50 in experiment [1] and in experiment [2] were 100 to 1000 nM and more than 1000 nM, respectively. The “Serum Shift (approximate)” value in experiment [2] was found to be 7.

With `O[C@H]1c2c(C(F)(F)F)nn([C@H]3C[C@@]4(CC4(F)F)C3)c2CC1(F)F` [Example 64, (4S)-5,5-difluoro-1-[(3r,5r)-1,1-difluorospiro[2.3]hexan-5-yl]-3-(trifluoromethyl)-4,6-dihydrocyclopenta[c]pyrazol-4-ol], the IC50 in experiment [1] is less than 100 nM. Besides, in experiment [2], the IC50 was more than 1000 nM and the “Serum Shift (approximate)” value is 12.

Regarding `O[C@H]1c2c(C(F)(F)F)nn([C@@H]3CC[C@@H](F)[C@@H](F)C3)c2CC1(F)F` (single isomer, unassigned) [72/73 DIAST-1], the IC50 in experiment [1] is less than 100 nM. Further, in experiment [2], the IC50 lay within 100 to 1000 nM and the “Serum Shift (approximate)” value worked out at 8.
